# Tests used:
# human CYP4F2 = human CYP4F2 (Homo sapiens (Human), UniProt P78329); assay: Inhibition test against 20-HETE producing enzyme CYP4F2 (luciferine derivative, luminescence); format: biochemical
# Procedure: (§1) (1) Inhibition Test for Each Compound of the Present Invention Against 20-HETE Producing Enzymes (CYP4F2 and CYP4A11)
# (§2) In the CYP4F2 inhibition test, the reaction solution containing each compound [final concentration of 50 mM, KPO4 (pH 7.4), 2.5 μM luciferine derivative, and 1 mM NADPH] was added to an Escherichia coli membrane fraction (100 μg/mL protein) in which human CYP4F2 had been expressed. In the CYP4A11 inhibition test, the reaction solution containing each compound [final concentration of 100 mM, Tris-HCl (pH 7.5), 60 μM luciferine derivative, 1.3 mM NADP^+, 3.3 mM Glucose 6-Phosphate, 3.3 mM MgCl2, and 0.4 U/mL Glucose 6-Phosphate dehydrogenase] was added to an Escherichia coli membrane fraction (100 μg/mL protein) in which human CYP4A11 had been expressed. Following this, the membrane fraction was left to stand at room temperature for 60 minutes to perform an enzymatic reaction. After the reaction, a luciferine detection reagent was added, and the luminescence value was measured using a plate reader. By using that value, the percent inhibition of 20-HETE producing enzyme (%) was calculated according to the equation described below, and the 50% inhibitory concentration (IC50 value) for each compound was calculated. Percent inhibition of 20-HETE producing enzyme (%)=[1−(A−B)/(C−B)]*100
# (§3) A: Luminescence value with addition of compound
# (§4) B: Luminescence value without addition of compound and enzyme
# human CYP4A11 = human CYP4A11 (Homo sapiens (Human), UniProt Q02928); assay: Inhibition test against 20-HETE producing enzyme CYP4A11 (luciferine derivative, luminescence); format: biochemical
# Procedure: as §1, §2, §3, §4
# [1] = E. coli membrane fraction expressing human CYP4F2, 2.5 μM luciferine derivative, room temperature 60 minutes
# [2] = E. coli membrane fraction expressing human CYP4A11, 60 μM luciferine derivative, room temperature 60 minutes
# [3] = human CYP4F2, luciferine derivative, luminescence
# [4] = human CYP4A11, luciferine derivative, luminescence
# human CYP4A11, sequence (Q02928 5-519): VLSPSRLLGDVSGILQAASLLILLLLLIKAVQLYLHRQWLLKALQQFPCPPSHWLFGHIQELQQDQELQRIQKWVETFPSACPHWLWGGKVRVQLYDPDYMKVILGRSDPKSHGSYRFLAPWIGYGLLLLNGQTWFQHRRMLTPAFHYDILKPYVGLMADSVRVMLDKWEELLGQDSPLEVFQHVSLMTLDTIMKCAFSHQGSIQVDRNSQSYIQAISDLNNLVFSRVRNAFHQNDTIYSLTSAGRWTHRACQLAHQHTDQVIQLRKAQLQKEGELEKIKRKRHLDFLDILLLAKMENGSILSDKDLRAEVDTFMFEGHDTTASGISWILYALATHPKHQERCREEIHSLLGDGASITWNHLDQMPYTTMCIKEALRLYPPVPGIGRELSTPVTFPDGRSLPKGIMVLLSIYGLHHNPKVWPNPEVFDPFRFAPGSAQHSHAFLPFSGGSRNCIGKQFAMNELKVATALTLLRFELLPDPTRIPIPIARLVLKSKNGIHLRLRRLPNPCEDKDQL
# human CYP4F2, sequence (P78329 5-520): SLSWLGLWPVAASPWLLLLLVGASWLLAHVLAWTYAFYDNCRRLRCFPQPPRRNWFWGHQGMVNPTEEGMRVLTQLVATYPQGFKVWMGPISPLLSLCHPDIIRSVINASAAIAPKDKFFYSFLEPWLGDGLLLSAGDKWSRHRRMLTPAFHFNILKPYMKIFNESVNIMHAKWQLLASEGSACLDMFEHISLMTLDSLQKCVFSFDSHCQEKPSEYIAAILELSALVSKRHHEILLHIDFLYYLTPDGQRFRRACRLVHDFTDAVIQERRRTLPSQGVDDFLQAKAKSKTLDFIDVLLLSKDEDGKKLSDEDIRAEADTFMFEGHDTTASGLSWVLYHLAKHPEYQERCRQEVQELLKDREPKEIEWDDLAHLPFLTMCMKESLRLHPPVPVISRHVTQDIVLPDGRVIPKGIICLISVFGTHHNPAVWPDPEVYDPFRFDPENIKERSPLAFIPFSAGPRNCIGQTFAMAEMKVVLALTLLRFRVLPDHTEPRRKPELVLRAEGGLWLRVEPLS
Structure (SMILES),IC50 (human CYP4F2; [1]),IC50 (human CYP4A11; [2]),IC50 (human CYP4F2; [3]),IC50 (human CYP4A11; [4])
"O=C(O)C1CC1c1cccc(COc2ccc(-c3ccn[nH]3)nc2)c1 (single isomer, unassigned) [Example 26-1, trans-2-[3-[[6-(1H-Pyrazol-5-yl)-3-pyridinyl]oxymethyl]phenyl]-1-cyclopropanecarboxylic Acid]",400 nM,20 nM,–,–
"O=C(O)C1CC1c1ccc(CCOc2ccc(-c3ccn[nH]3)nc2)c(F)c1 (single isomer, unassigned) [Example 71-17]",–,–,520 nM,250 nM
"O=C(O)C1CC1c1cccc(COc2ccc(-c3ccn[nH]3)nc2)c1F (single isomer, unassigned) [Example 71-45, 2-[2-Fluoro-3-[[6-(1H-pyrazol-5-yl)pyridin-3-yl]oxymethyl]phenyl]cyclopropane-1-carboxylic Acid]",–,–,210 nM,15 nM
"O=C(O)C1CC1c1ccc(F)c(CCOc2ccc(-c3ccn[nH]3)nc2)c1 (single isomer, unassigned) [Example 74-8]",–,–,410 nM,77 nM
"O=C(O)C1CCc2ccc(COc3ccc(-c4[nH]ncc4Cl)nc3)cc2O1 (single isomer, unassigned) [Example 75-7]",–,–,20 nM,7.7 nM
"O=C(O)C1CCc2ccc(COc3ccc(-c4[nH]ncc4Cl)nc3)cc2O1 (single isomer, unassigned) [Example 75-8]",–,–,67 nM,67 nM
CC(Oc1ccc(-c2ccn[nH]2)nc1)c1ccc(C(=O)O)cc1 (centres unmarked) [Example 1-2],42000 nM,250 nM,–,–
O=C(O)CCc1ccc(COc2ccc(-c3ccn[nH]3)nc2)cc1 [Example 1-3],220 nM,79 nM,–,–
O=C(O)CCc1ccccc1COc1ccc(-c2ccn[nH]2)nc1 [Example 1-4],16000 nM,110 nM,–,–
O=C(O)c1ccc(CCOc2ccc(-c3ccn[nH]3)nc2)cc1 [Example 1-5],3500 nM,150 nM,–,–
O=C(O)c1cccc(CCOc2ccc(-c3ccn[nH]3)nc2)c1 [Example 1-6],2300 nM,340 nM,–,–
O=C(O)c1ccccc1CCOc1ccc(-c2ccn[nH]2)nc1 [Example 1-7],11000 nM,2400 nM,–,–
O=C(O)c1ccc(CCCOc2ccc(-c3ccn[nH]3)nc2)cc1 [Example 1-8],2600 nM,78 nM,–,–
O=C(O)c1cccc(CCCOc2ccc(-c3ccn[nH]3)nc2)c1 [Example 1-9],480 nM,79 nM,–,–
O=C(O)c1ccccc1CCCOc1ccc(-c2ccn[nH]2)nc1 [Example 1-10],27000 nM,4200 nM,–,–
O=C(O)CCCc1ccccc1COc1ccc(-c2ccn[nH]2)nc1 [Example 1-11],43000 nM,24 nM,–,–
O=C(O)CCCCc1ccccc1COc1ccc(-c2ccn[nH]2)nc1 [Example 1-12],> 50000 nM,170 nM,–,–
O=C(O)Cc1ccc(CCOc2ccc(-c3ccn[nH]3)nc2)cc1 [Example 1-13],2700 nM,31 nM,–,–
O=C(O)CCc1ccc(CCOc2ccc(-c3ccn[nH]3)nc2)cc1 [Example 1-15],670 nM,210 nM,–,–

Structure (SMILES),IC50 (human CYP4F2; [1]),IC50 (human CYP4A11; [2]),IC50 (human CYP4F2; [3]),IC50 (human CYP4A11; [4])
O=C(O)CCc1cccc(CCOc2ccc(-c3ccn[nH]3)nc2)c1 [Example 1-16],1100 nM,36 nM,–,–
O=C(O)CCc1ccccc1CCCOc1ccc(-c2ccn[nH]2)nc1 [Example 1-17],5100 nM,16 nM,–,–
O=C(O)c1ccc(CCCCOc2ccc(-c3ccn[nH]3)nc2)cc1 [Example 1-18],330 nM,14 nM,–,–
O=C(O)c1cccc(CCCCOc2ccc(-c3ccn[nH]3)nc2)c1 [Example 1-19],220 nM,9.5 nM,–,–
O=C(O)C12CCC(COc3ccc(-c4[nH]ncc4Cl)nc3)(CC1)CC2 [Example 1-20],9200 nM,16 nM,–,–
O=C(O)C12CCC(COc3cnc(-c4ccn[nH]4)c(F)c3)(CC1)CC2 [Example 1-21],31000 nM,29 nM,–,–
O=C(O)CCC(=O)N1CCC[C@@H](COc2ccc(-c3ccn[nH]3)nc2)C1 [Example 1-24],15000 nM,170 nM,–,–
O=C(O)Cn1cc(-c2cccc(COc3ccc(-c4ccn[nH]4)nc3)c2)ccc1=O [Example 1-25],1600 nM,120 nM,–,–
O=C(O)C1CC(CCOc2ccc(-c3ccn[nH]3)nc2)C1 (centres unmarked) [Example 1-26],14000 nM,43 nM,–,–
O=C(O)C1CC1CCCOc1ccc(-c2ccn[nH]2)nc1 (centres unmarked) [Example 1-27],41000 nM,38 nM,–,–
O=C(O)C1CC1CCCOc1ccc(-c2ccn[nH]2)nc1 (centres unmarked) [Example 1-28],19000 nM,74 nM,–,–
O=C(O)C12CCC(CCCOc3ccc(-c4ccn[nH]4)nc3)(CC1)CC2 [Example 1-30],4100 nM,34 nM,–,–
O=C(O)C1(CCCCOc2ccc(-c3ccn[nH]3)nc2)CCC1 [Example 1-33],15000 nM,74 nM,–,–
O=C(O)C1(CCCCOc2ccc(-c3ccn[nH]3)nc2)CCCCC1 [Example 1-35],2200 nM,84 nM,–,–
"O=C(O)c1cc(COc2ccc(-c3n[nH]cc3Cl)nc2)ccn1 [Example 1-41, 4-[[6-(4-Chloro-1H-pyrazol-3-yl)-3-pyridinyl]oxymethyl]-2-pyridinecarboxylic Acid]",3700 nM,97 nM,–,–
O=C(O)C1CCC(COc2ccc(-c3ccn[nH]3)nc2)CC1 (centres unmarked) [Example 1-42],25000 nM,52 nM,–,–
"CC(C)(CCCCCOc1ccc(-c2ccn[nH]2)nc1)C(=O)O [Example 1-43, 2,2-Dimethyl-7-[[6-(1H-pyrazol-5-yl)-3-pyridinyl]oxy]heptanoic Acid]",18000 nM,46 nM,–,–
O=C(O)C1(CCCCCCOc2ccc(-c3ccn[nH]3)nc2)CCCCC1 [Example 1-44],510 nM,110 nM,–,–

# Other lines, results leading:
IC50 (human CYP4F2; [1]),IC50 (human CYP4A11; [2]),IC50 (human CYP4F2; [3]),IC50 (human CYP4A11; [4]),Structure (SMILES)
1300 nM,25 nM,–,–,"O=C(O)CC[C@H]1CCC[C@@H](COc2ccc(-c3ccn[nH]3)nc2)C1 (racemic) [Example 2-6, cis-3-[3-[[6-(1H-Pyrazol-5-yl)-3-pyridinyl]oxymethyl]cyclohexyl]propanoic Acid (Racemate)]"
1900 nM,51 nM,–,–,"O=C(O)[C@H]1CCC[C@H](COc2ccc(-c3ccn[nH]3)nc2)C1 (racemic) [Example 9-1, trans-3-[[6-(1H-Pyrazol-5-yl)-3-pyridinyl]oxymethyl]-1-cyclohexanecarboxylic Acid (Racemate)]"
–,–,1300 nM,78 nM,"O=C(O)C1CC1c1ccc(F)c(CCOc2ccc(-c3ccn[nH]3)nc2)c1 (single isomer, unassigned) [Example 74-7]"
–,–,2600 nM,56 nM,"O=C(O)C1CC1c1cc(F)cc(CCOc2ccc(-c3ccn[nH]3)nc2)c1 (single isomer, unassigned) [Example 74-10]"
–,–,1200 nM,78 nM,"O=C(O)C1CC1c1cc(F)cc(CCOc2ccc(-c3ccn[nH]3)nc2)c1 (single isomer, unassigned) [Example 74-11]"
15000 nM,37 nM,–,–,"O=C(O)c1ccc(COc2ccc(-c3ccn[nH]3)nc2)cc1 [Example 1-1, 4-[[6-(1H-Pyrazol-5-yl)-3-pyridinyl]oxymethyl]benzoic Acid]"
7800 nM,21 nM,–,–,O=C(O)Cc1cccc(CCOc2ccc(-c3ccn[nH]3)nc2)c1 [Example 1-14]
> 50000 nM,38 nM,–,–,Cc1cc(OCC23CCC(C(=O)O)(CC2)CC3)cnc1-c1ccn[nH]1 [Example 1-22]
20000 nM,320 nM,–,–,O=C(O)CCC(=O)N1CCC[C@H](COc2ccc(-c3ccn[nH]3)nc2)C1 [Example 1-23]
360 nM,30 nM,–,–,O=C(O)C1CCCC(CCCOc2ccc(-c3ccn[nH]3)nc2)C1 (centres unmarked) [Example 1-29]
160 nM,1700 nM,–,–,CC(C)(CC(=O)N1CCC(CCCOc2ccc(-c3ccn[nH]3)nc2)CC1)C(=O)O [Example 1-31]
3800 nM,9300 nM,–,–,CC(C)(CC(=O)N1CCCC(CCCOc2ccc(-c3ccn[nH]3)nc2)C1)C(=O)O (centres unmarked) [Example 1-32]
1800 nM,38 nM,–,–,O=C(O)C1(CCCCOc2ccc(-c3ccn[nH]3)nc2)CCCC1 [Example 1-34]
1300 nM,110 nM,–,–,CC(C)(Oc1cccc(CCCCOc2ccc(-c3ccn[nH]3)nc2)c1)C(=O)O [Example 1-36]
94 nM,21 nM,–,–,O=C(O)c1cccc(S(=O)(=O)N2CCC[C@@H](COc3ccc(-c4ccn[nH]4)nc3)C2)c1 [Example 1-37]
1200 nM,42 nM,–,–,CC(C)(CCc1cc(COc2ccc(-c3ccn[nH]3)nc2)ccn1)C(=O)O [Example 1-38]
9800 nM,420 nM,–,–,CC(C)(CCc1cccc(COc2ccc(-c3ccn[nH]3)nc2)n1)C(=O)O [Example 1-39]
15000 nM,580 nM,–,–,"O=C(O)c1cc(COc2ccc(-c3ccn[nH]3)nc2)ccn1 [Example 1-40, 4-[[6-(1H-Pyrazol-5-yl)-3-pyridinyl]oxymethyl]-2-pyridinecarboxylic Acid]"

# From patent US11365192B2, “Pyridine compound substituted with azole” (TAISHO PHARMACEUTICAL CO., LTD., priority 2017, dated 2022)
